Results reported in patent US7198942B2, “Acetylcholine receptor subunits” (Bayer CropScience LP, priority 2000, dated 2007).

Key:
[1] = tested on: Untransfected control cells (Sf9); assay: Whole-cell recordings on untransfected Sf9 control cells; assay type: cell-based, Spodoptera frugiperda; conditions: untransfected Sf9 control cells in the same experiment
Description: Spodoptera frugiperda 9 (Sf9) cells were transfected simultaneously with cDNA expression plasmids which code for the modified heliothis/chicken subunit and for the chicken β2 subunit using a liposomal transfection reagent (DAC-30, Eurogentec, Belgium). A cDNA expression construct for the green fluorescent protein from Aequoria victoria was transfected simultaneously. This makes it possible simply to identify transfected cells because experience has shown that most of the cells which have taken up one of the constructs have also taken up the other ones. 24 to 48 hours after transfection, the currents through the cell membrane of the Sf9 cells were measured by whole-cell recordings. For this purpose, the potential difference across the cell membrane was kept constant at −70 mV. Substances were applied using the U-tube reversed flow technique (Fenwick 1982). […]
To check whether expression of the cDNAs which code for the modified heliothis/chicken subunit shown in SEQ ID NO: 3 and the chicken β2 subunit led to the production of functional acetylcholine receptors in the cells, whole-cell recordings were carried out by the method described above, during which the cells were stimulated with acetylcholine (1000 μM) or imidacloprid (100 μM). […] In order to quantify the results, a series of experiments was carried out with 5 measurements. […]

[2] = target: T1, receptors consisting of the chicken β2 subunit and polypeptide according to SEQ ID NO: 7 (Gallus gallus, UniProt P09482+P09484, INS192RGTNVVELG); assay type: cell-based, Heliothis virescens / chicken; conditions: Xenopus oocytes, membrane voltage −80 mV
T1 construct: expressed in transfected cells; host or cells: Xenopus oocytes (nuclear injection of cDNA expression vectors)
Method: (§1) Xenopus oocytes were isolated and prepared as previously described (Bertrand et al. 1991). On the first day after isolation of the oocytes, in each case 10 nl of a solution with 2 ng of an appropriate cDNA expression vector were injected into the cell nuclei of the oocytes. The oocytes were kept at 19° C. in a suitable medium (BARTH solution consisting (in mM) of NaCl 88, KCl 1, NaHCO3 2.4, MgSO4 0.82, Ca(NO3)2 0.33, CaCl2 0.41, HEPES 10, pH 7.4) for 3–5 days. After this time, the electrophysiological experiments were carried out.
(§2) Electrophysiological recordings were carried out using a dual electrode voltage clamp by tried and tested methods which are well known (compare Bertrand et al. 1992). Each oocyte was placed singly in a measurement chamber and pierced by two microelectrodes. […] The membrane voltage was fixed at −80 mV using a voltage clamp amplifier (TEC-00, npi, Tamm, Germany), and the inward current flowing through the cell membrane was measured and recorded by computer. Frog Ringer solution containing 115 mM NaCl; 2.5 mM KCl; 1.8 mM CaCl2; 10 mM HEPES; at pH 7.4 (adjusted with NaOH) flowed at a flow rate of 5–10 ml/minute through the measurement chamber. In order to test acetylcholine, imidacloprid or another active substance on these oocytes, the substance was added in the intended concentration to the frog Ringer solution and the perfusion of the measurement chamber was briefly changed over to this test solution. Acetylcholine (Fluka, Buchs, Switzerland) was stored as stock solution at −20° C. and added to the measurement solution immediately before the experiment.
(§3) In this case it is immediately evident from the occurrence of an additional inward current signal whether the receptor variant expressed in the particular oocyte can be activated by imidacloprid or not.
(§4) In order to characterize the sensitivity of the modified receptors to acetylcholine and imidacloprid in more detail, dose-effect plots were recorded by repeating the experiment described above with different concentrations of the substance.

[3] = target: T2, receptors consisting of the chicken β2 subunit and polypeptide according to SEQ ID NO: 3 (Gallus gallus, UniProt P09482+P09484, A129E/D127N/D141T/F139N/F162Y/H132L/H137T/I144V/K145E/K171V/L133A/M147R/N169T/S157E/T161E); assay type: cell-based, Heliothis virescens / chicken; conditions: Xenopus oocytes, membrane voltage −80 mV, FIG. 2A
T2 construct: expressed in transfected cells; host or cells: Xenopus oocytes (nuclear injection of cDNA expression vectors)
Method: as §1, §2, §3, §4

[4] = target: T3, receptors consisting of the chicken β2 subunit and polypeptide according to SEQ ID NO: 11 (Gallus gallus, UniProt P09482+P09484, A209V/D197E/E200T/E219T/G202V/G211A/I207L/I224P/K217F/L196S/N208E/N212V/P226L/Q195L/S215E/S231N/T222D/V205D/V210P/W199Y/Y198F/Y213R/Y230F); assay type: cell-based, Heliothis virescens / chicken; conditions: Xenopus oocytes, membrane voltage −80 mV
T3 construct: expressed in transfected cells; host or cells: Xenopus oocytes (nuclear injection of cDNA expression vectors)
Method: as §1, §2, §3, §4

[5] = tested on: receptors comprising unmodified Heliothis α1 subunits and chicken β2 subunits; assay: Dual electrode voltage clamp on Xenopus oocytes expressing Heliothis α1/chicken β2 receptors; assay type: cell-based, Heliothis virescens / chicken; conditions: membrane voltage −80 mV, FIG. 2C
Method: as §1
Electrophysiological recordings were carried out using a dual electrode voltage clamp by tried and tested methods which are well known (compare Bertrand et al. 1992). Each oocyte was placed singly in a measurement chamber and pierced by two microelectrodes. […] The membrane voltage was fixed at −80 mV using a voltage clamp amplifier (TEC-00, npi, Tamm, Germany), and the inward current flowing through the cell membrane was measured and recorded by computer. […]
as §4

[6] = target: T4, receptor containing polypeptide shown in SEQ ID NO: 3 and the chicken β2 subunit (Gallus gallus, UniProt P09482+P09484, A129E/D127N/D141T/F139N/F162Y/H132L/H137T/I144V/K145E/K171V/L133A/M147R/N169T/S157E/T161E); assay: Whole-cell recordings on transfected Sf9 cells, SEQ ID NO: 3/chicken β2; assay type: cell-based, Heliothis virescens / chicken; conditions: −70 mV
T4 construct: expressed in transfected cells; host or cells: Spodoptera frugiperda Sf9 cells (transient, DAC-30; GFP co-transfected as a marker)
Description: Spodoptera frugiperda 9 (Sf9) cells were transfected simultaneously with cDNA expression plasmids which code for the modified heliothis/chicken subunit and for the chicken β2 subunit using a liposomal transfection reagent (DAC-30, Eurogentec, Belgium). A cDNA expression construct for the green fluorescent protein from Aequoria victoria was transfected simultaneously. This makes it possible simply to identify transfected cells because experience has shown that most of the cells which have taken up one of the constructs have also taken up the other ones. 24 to 48 hours after transfection, the currents through the cell membrane of the Sf9 cells were measured by whole-cell recordings. For this purpose, the potential difference across the cell membrane was kept constant at −70 mV. Substances were applied using the U-tube reversed flow technique (Fenwick 1982). The volume of the experimental chamber, which was continuously perfused with bath solution (3 ml/min), was less than 0.5 ml. […] The pipette solution contained (in mM): 150 KCl, 10 HEPES 10 K-EGTA (pH 7.2). The microelectrodes were produced in an electrode puller (Zeitz, Germany) from borosilicate glass blanks (external diameter 1.6 mm, Hilgenberg, Germany). The resistance of the flame-polished microelectrodes on use of the abovementioned pipette and bath solutions was between 4 and 6 MΩ. […]

[7] = target: chicken α4 subunit and the chicken β2 subunit (Gallus gallus, UniProt P09482+P09484); assay: Whole-cell recordings on transfected Sf9 cells, chicken α4/β2; assay type: cell-based; conditions: −70 mV

Row | SMILES | response (inward current) [1] | ligand-induced conductance / sensitivity [2] | ligand-induced conductance / sensitivity [3] | ligand-induced conductance / sensitivity [4] | sensitivity (ligand-induced conductance) [5] | inward currents after stimulus ([6]; 100 μM imidacloprid, FIG. 3) | amplitude ratio (maximum amplitude on 100 μM imidacloprid divided by maximum amplitude on 1000 μM acetylcholine) ([6]; n=5 cells) | inward currents on application ([7]; 100 μM imidacloprid) | amplitude ratio (maximum amplitude on 100 μM imidacloprid divided by maximum amplitude on 1000 μM acetylcholine) ([7]; n=5 cells)
1 | CC(=O)OCC[N+](C)(C)C [acetylcholine] | no response |  |  |  |  |  |  |  | 
2 | O=[N+]([O-])NC1=NCCN1Cc1ccc(Cl)nc1 [imidacloprid] | no response | only the receptors consisting of the chicken β2 subunit and polypeptides according to SEQ ID NO: 3 are sensitive to imidacloprid | sensitive | only the receptors consisting of the chicken β2 subunit and polypeptides according to SEQ ID NO: 3 are sensitive to imidacloprid | sensitive | strong inward currents | 0.46±0.09 | either no or only very weak inward currents | 0.05±0.06
